From patent US20130252890A1, “6,7-DIHYDRO-5H-BENZO[7]ANNULENE DERIVATIVES, PROCESS FOR PREPARATION THEREOF, PHARMACEUTICAL PREPARATIONS COMPRISING THEM, AND THE USE THEREOF FOR PRODUCTION OF MEDICAMENTS” (BAYER INTELLECTUAL PROPERTY GMBH, priority 2010, published 2013) come the findings set out here.

“Also recorded” adds a separate entry of the source.

Broadly, the IC50 is the point on the concentration scale where inhibition reaches its midpoint.

Data set [1] concerns peripheral cholesterol level. Briefly: Hepatic oestrogenicity in the ovariectomized adult rat (plasma cholesterol). Type of data set: in vivo. To be noted: ovariectomized adult rats, s.c. daily for 6 days; cholesterol day 0 vs day 8. The source says:
Substances with oestrogenic action influence the synthesis of various plasma proteins, of coagulation factors and fibrinolytic factors in the liver. […] In the present investigations, lowering of the peripheral cholesterol level is used as a surrogate parameter for analysis of the hepatic oestrogenicity of the claimed pharmacological compounds. Adult ovariectomized rats were, after a pause of 6-10 days, treated daily for 6 days with the substances by subcutaneous application. The plasma cholesterol levels were determined and compared before and after the respective treatment.

A further data set concerns the target T1, oestrogen receptor (ER) (Homo sapiens, UniProt P03372).
T1 construct: These MVLN cells express, along with the functional oestrogen receptor (ER), a reporter construct; endogenous in cells; host or cells: MVLN cells (MCF7 derivative carrying a luciferase reporter construct)
T1 sequence (P03372 1-595): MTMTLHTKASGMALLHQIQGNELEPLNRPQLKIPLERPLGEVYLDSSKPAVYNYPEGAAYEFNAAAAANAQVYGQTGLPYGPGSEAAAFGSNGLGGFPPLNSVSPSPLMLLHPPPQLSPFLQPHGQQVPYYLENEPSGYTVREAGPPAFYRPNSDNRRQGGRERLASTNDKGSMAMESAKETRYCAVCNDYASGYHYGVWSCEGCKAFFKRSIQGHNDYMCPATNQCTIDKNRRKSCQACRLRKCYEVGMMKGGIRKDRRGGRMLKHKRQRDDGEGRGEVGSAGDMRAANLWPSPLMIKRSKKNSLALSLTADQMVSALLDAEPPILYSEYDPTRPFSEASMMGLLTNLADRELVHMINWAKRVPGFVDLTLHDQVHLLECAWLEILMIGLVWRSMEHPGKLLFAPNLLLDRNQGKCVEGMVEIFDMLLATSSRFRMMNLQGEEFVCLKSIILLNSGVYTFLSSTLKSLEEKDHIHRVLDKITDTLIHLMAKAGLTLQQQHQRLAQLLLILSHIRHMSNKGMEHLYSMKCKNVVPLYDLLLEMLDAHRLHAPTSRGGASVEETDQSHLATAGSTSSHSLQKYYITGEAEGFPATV
The experiment in a line: Anti-oestrogenic action in MVLN cells (inhibition of estradiol-induced luciferase). To be noted: inhibition of estradiol-induced luciferase signal, value of Ex. 44 is a mean value, read-out: Antioestrogenic action in vitro: MVLN transactivation antagonism IC50. It counts as cell-based. In short, it runs like this: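 Inhibition of estradiol-driven luciferase expression was measured with compounds co-applied alongside oestrogen. Reporter system: MCF7-derived MVLN cells expressing endogenous functional ER and an ER-responsive luciferase construct.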

The test system of data set [2] is uterus. Briefly: Oestrogenic action - uterus growth test in the infantile rat. Type of data set: in vivo. The following applies: sc, 72 h, s.c. 3 days, maximum at dose 0.03 mg/kg, relative to E2 0.3 μg/animal, read-out: maximum uterotropic action (% estradiol action) in the dose range from 0.03 to 3 mg/kg. The method, then: Both the uterus and the vagina show a weight increase that is dependent on oestrogenic efficacy, in infantile animals when they are treated with a substance with oestrogenic action. In the uterus, under oestrogenic action there is also proliferation and increase in height of the luminal epithelium.
Immature, intact rats (n=5-6 animals/group; body weight 40-50 g) receive the substance s.c. for 3 days (d1-d3). On day 4 (d4) the animals are killed with CO2. The uteri are removed and weighed. For histological assessment, a piece of uterus, preferably a uterine horn, is fixed in formaldehyde and embedded in paraffin. The stimulation of the organ weights (relative to mg/100 g body weight) and the height of the epithelium are shown as percentage stimulation in comparison with the reference compound 17β-estradiol (E2). (Substitution dose of E2 0.3 μg/animal).

In data set [3] the test system is uterus. Briefly: Anti-uterus growth test in the adult rat. The following applies: sc, 72 h; ovariectomized adult rat, s.c. 3 days with 1.5 μg/kg/day 17β-estradiol; inhibition of uterus growth; value of 44 is a mean of two measurements; read-out: anti-oestrogenic activity in vivo in % at a dose of 0.3 mg/kg (rat). From the text: The uterus of oestrogen-substituted rats can be used as a test model for detecting a direct action of substances with anti-oestrogenic properties. The parameter of oestrogenic action is estradiol-induced uterus growth in rats, which is inhibited by simultaneous administration of a substance with anti-oestrogenic action. The experimental animals (n=5-6 animals/group) were ovariectomized before the start of the test, to rule out the influence of endogenous oestrogens. After a phase of 6 to 10 days, the test substances are administered s.c. on 3 consecutive days (d1-d3) in combination with a substitution dose of 1.5 μg/kg/day 17β-estradiol. 17β-estradiol alone serves as positive control, and the excipients serve as negative control. On day 4 (d4) the animals are killed, and the uteri and vaginae are removed and weighed. The organ weights are converted to mg/100 g body weight, then the mean value and the standard deviation are calculated for each dosage. The inhibition of uterus growth induced by 17β-estradiol is shown as percentage inhibition.

The next data set concerns endometriosis lesions. The experiment in a line: Endometriosis model in the rat (autologous transplantation). It counts as in vivo. To be noted: rat. From the text:
Using intact adult female rats, experimental endometriosis was induced in the autologous transplantation model based on Vernon M. W. and Wilson E. A., 1985 (Fertil Steril. 44(5):684-694). A uterine horn was removed from animals that were exclusively in oestrus, the myometrium was separated from the endometrium and biopsies with dimensions of 4×4 mm were obtained from the endometrial tissue. Two uterine fragments were transplanted onto the inside of the abdominal wall (peritoneum) and two uterine fragments were transplanted onto the mesenterium of the same animal (4 fragments per animal). After 21 days the animals with endometriosis were laparotomized, and the size of the transplants was determined. The animals were treated after laparotomy and then daily in the morning with the stated dosages of the selected claimed substances by subcutaneous administration. Finally, 28 days after the start of treatment (49 days after transplantation), all the animals were laparotomized again and the size of the lesion was measured and was correlated with the size before the start of treatment.

Data set [4] concerns ovarian estradiol synthesis. Briefly: Stimulation of ovarian oestrogen synthesis (HPG axis) in intact adult rats. Type of data set: in vivo, rat. To be noted: hormonally intact adult rats, daily for 10 days; quotient of peripheral estradiol values after and before treatment. The source says: The clinical use both of pure anti-oestrogens and of various SERMs for the treatment of premenopausal women is limited by their property of stimulating the ovaries through activation of the hypothalamic-pituitary-gonadal axis (HPG axis), which leads to the increase in peripheral estradiol levels (Palomba, S., Orio, F., Jr., Morelli, M., Russo, T., Pellicano, M., Zupi, E., Lombardi, G., Nappi, C., Panici, P. L., and Zullo, F. (2002). Raloxifene administration in premenopausal women with uterine leiomyomas: a pilot study. J Clin Endocrinol Metab 87, 3603-3608). This stimulation of the HPG axis is associated with penetration of the blood-brain barrier and penetration of the brain. To investigate the ovary-stimulating properties of the claimed pharmacological compounds, hormonally intact adult rats were treated with the substances daily for a period of 10 days. The study end point is the quotient of peripheral estradiol values after and before treatment.

In the next data set the target is T2, ERα protein (Homo sapiens, UniProt P03372).
T2 construct: These cells express the ER in functional form; endogenous in cells; host or cells: T47D breast cancer cells
T2 sequence (P03372 1-595): T1 sequence (P03372 1-595)
Briefly: Effect on stability of ERα protein in T47D breast cancer cells (ELISA). It counts as cell-based. The following applies: 24 hours, ER protein by ELISA. The method, then: As well as inhibition of the transcriptional activity of the ER, anti-oestrogens influence the expression level of the ER in the target tissues through stimulation of the proteolytic degradation of the ER. In comparison with an ER-E2 complex, the ER bound in a complex with the pure anti-oestrogen fulvestrant has a substantially shorter half-life.
The effect of the claimed pharmacological compounds on the stability of the ER was analysed in T47D breast cancer cells (see Table 1, column Standardized ER-destabilization [%]). These cells express the ER in functional form. The cells are incubated for 24 hours with the claimed compounds at a concentration of 1 μM. After lysis of the cells, the content of ER protein was determined by ELISA. […] Compounds with ER content below 30% are classified as destabilizing.
As described, the claimed pharmacological substances were investigated for their action on the stability of the ERα protein (see Table 1).
(ELISA stands for enzyme-linked immunosorbent assay.)

Data set [5] has as its system trabecular bone density and uterus weight. Type of data set: in vivo, rat. The following applies: adult ovariectomized rats, 56 days; compound 44 oral 1-10 mg/kg, effect already beginning with 1 mg/kg. The method, then:
3-months-old female rats are ovariectomized and immediately after the operation they are treated with the test compound once daily for 56 days. Application is oral in peanut oil/ethanol. The animals are killed on the day after the last application and the tibia and the uteri are removed. The uteri are weighed, fixed and prepared for histological investigations. Bone density is determined ex vivo on prepared long bones by pQCT (peripheral quantitative computed tomography).
Ovariectomy leads to a decrease in density of the trabecular bone in the measured region. By treatment with a compound of general formula I according to the present invention (dosages of 1-10 mg/kg/day) the decline in bone density is prevented or inhibited. Bone density was measured on the proximal tibia.
The bone-protective action in adult ovariectomized female animals (rat) was investigated as described. […] The selected claimed pharmacological example compound 44 was applied orally at dosages from 1-10 mg/kg.

`CN(CCCCCCC1=C(c2ccc(F)cc2)CCCc2cc(O)ccc21)CCCS(=O)(=O)CCCC(F)(F)C(F)(F)F` [Example 115, 8-(4-fluorophenyl)-9-[6-(methyl{3-[(4,4,5,5,5-pentafluoropentyl)sulphonyl]propyl}amino)hexyl]-6,7-dihydro-5H-benzo[7]annulen-3-ol]: the “hepatic oestrogenicity: lowering of the peripheral cholesterol level” value (shortened to “hepatic oestrogenicity: lowering”) in data set [1] is on record as “only observed at high dosage”. The IC50 at oestrogen receptor (ER) was found to be 13 nM. For the same compound, the Emax at 0.03 mg/kg with uterus [2] came to 3%. For the same compound, the inhibition in vivo at 0.3 mg/kg in the data set on uterus [3] is 50%. For the same compound, the “dosage with significant reduction in sizes of lesions” value in the data set on endometriosis lesions (28 days of treatment, 115 tested 0.1-1 mg/kg, 44 tested 0.3-10 mg/kg) amounted to 1 mg/kg. In the data set with endometriosis lesions (s.c. daily, 4 weeks (FIG. 2A, FIG. 2B)), the “reduction of lesion size” value is reported as “significant dose-dependent reduction of lesion size”. For the same compound, the “Stimulation of ovarian oestrogen synthesis: factor at a dose of 3 mg/kg rat” value in data set [4] is 2.7.
On to `CN(CCCCCCC1=C(c2ccc(F)cc2)CCCc2cc(O)ccc21)CCC[S+]([O-])CCCC(F)(F)C(F)(F)F` (stereo not shown) [Example 118, 8-(4-fluorophenyl)-9-[6-(methyl{3-[(4,4,5,5,5-pentafluoropentyl)sulphinyl]propyl}amino)hexyl]-6,7-dihydro-5H-benzo[7]annulen-3-ol], for which, in data set [1], the “hepatic oestrogenicity: lowering” value is “only observed at high dosage”. For the same compound, the IC50 at oestrogen receptor (ER) was determined as 9 nM. For the same compound, the Emax at 0.03 mg/kg in the data set on uterus [2] is 8%. Besides, the inhibition in vivo at 0.3 mg/kg in the data set with uterus [3] was 78%. Further, the “Stimulation of ovarian oestrogen synthesis: factor at a dose of 3 mg/kg rat” value in data set [4] is on record as 2.3.
For `C[C@]12CC[C@@H]3c4ccc(O)cc4C[C@@H](CCCCCCCCC[S+]([O-])CCCC(F)(F)C(F)(F)F)[C@H]3[C@@H]1CC[C@@H]2O` (stereo partly shown) [fulvestrant, reference compound], the “relative ERα content (% ER)” value on ERα protein was 0%.
As to `O=C(c1ccc(OCCN2CCCCC2)cc1)c1c(-c2ccc(O)cc2)sc2cc(O)ccc12` [raloxifene, reference compound], the “hepatic oestrogenicity: lowering” value in data set [1] is recorded as “hepatic oestrogenicity at all dosages tested; also recorded: marked lowering of the cholesterol level at all dosages”. Further, in data set [5], the “bone-protective action (trabecular bone mass density, tibia)” value is on record as “marked bone protective action”. In addition, the Emax at 0.03 mg/kg in the data set with uterus [2] is 18%.
